For this experiment, the system named is PAF-induced platelet aggregation. Nature of the experiment: PAF-induced platelet aggregation in human platelet-rich plasma (PRP), in vitro PAF antagonism assay. The note with it: 37° C, 2 min preincubation, PAF 1-5×10^-8 M, read-out: Percent Inhibition. Type of experiment: cell-based. The procedure: These test procedures are standard tests used to determine PAF antagonistic activity and to evaluate the usefulness of said compounds for counteracting the biological effects of PAF. The in vitro assay is a simple screening test, while the in vivo test mimics clinical use of the compounds described herein.
Preparation of platelet-rich plasma (PRP): Human blood (50 ml) was collected from healthy male donors in an anticoagulant solution (5 ml) containing sodium citrate (3.8%) and dextrose (2%). Blood was centrifuged at 110× g for 15 min. and the supernatant (PRP) carefully transferred into a polypropylene tube. Platelet-poor-plasma (PPP) was prepared by centrifuging PRP at 12,000× g for 2 min. (Beckman Microfuge B). PRP was used within 3 hours of drawing the blood.
Platelet Aggregation Assay: When an aggregating agent such as PAF is added to PRP, platelets aggregate. An aggregometer quantifies this aggregation by measuring light transmission through PRP and comparing to PPP. The aggregation assays were performed using a dual channel aggregometer (Model 440, Chrono-Log Corp., Havertown, Penn.). PRP (0.45 ml)in aggregometer cuvettes was continually stirred (37° C). Solutions of test compounds or vehicle were added to the PRP, and after incubation for 2 min., 10-15 […] aliquots of PAF solution were added so as to achieve a final concentration of 1-5×10^-8 M. Incubations were continued until the increase in light transmission reached a maximum (usually 2 min). Values for inhibition were calculated by comparing maximal aggregation obtained in the absence and the presence of the compound. For each experiment, a standard PAF antagonist such as alprazolam was used as a positive internal control. The inhibitory concentration (IC50)is the concentration of compound in micromoles at which 50% of the aggregation is inhibited, as measured by the light transmission through each sample of PRP as compared to PPP.

One may read the inhibition as the drop in the measured response relative to a control, in per cent.

Take `CCCCCCCCCCCCCCCCCCN(C)C(=O)OCC(C)(CC)COCCCCCCC[n+]1ccsc1` (centres unmarked): the inhibition at 50 µM came to 100%. The same measure, in the same setting: the same measure for `CC(COCc1ccc(CN2CCSC2=N)cc1)(COC(=O)Nc1ccccc1)S(C)(=O)=O` (centres unmarked): 90%. In the case of `CCCCCCCCCCCCCCCCCCN(C)C(=O)OCC(C)(COC(=O)N(CC[n+]1ccccc1)C(C)=O)OC` (centres unmarked), the inhibition at 10 µM came out at 100%.

In the case of `CCCCCCCCCCCCCCCCCCN(C)C(=O)OCC(C)(COCCCCCCC[N+]1(C)CCSC1)OC` (centres unmarked), the inhibition at 10 µM worked out at 93%. For `CCCCCCCCCCCCCCCCCCN(C)C(=O)OCC(C)(COCCCCCCCOC(=O)C1CSCN1)OC` (centres unmarked), the inhibition at 50 µM amounted to 3%. Turning to `CCCCCCCCCCCCCCCCCCN(C)C(=O)OCC(C)(CNC(=O)OCC[n+]1ccccc1)OC` (centres unmarked), the inhibition at 50 µM was found to be 100%.

As to `CCCCCCCCCCCCCCCCCCN(C)C(=O)OCC(C)(COCCCCCCC[n+]1ccsc1)[S+](C)[O-]` (centres unmarked), the inhibition at 50 µM came to 100%. For the molecule `CCCCCCCCCCCCCCCCCCN(C)C(=O)OCC(CC)(COP(=O)([O-])OCC[n+]1ccsc1)OC` (centres unmarked), the inhibition at 50 µM came to 100%. Consider `CCCCCCCCCCCCCCCCCCNC(=O)OCC(C)(COP(=O)([O-])OCC[n+]1ccsc1)OC` (centres unmarked), for which the inhibition at 10 µM stood at 50%.

Take `CCCCCCCCCCCCCCCCCCN(C)C(=O)OCC(C)(COCCCCCCCn1cnc(CC(=O)O)c1)OC` (centres unmarked): the inhibition at 50 µM amounted to 19%. With `CCCCCCCCCCCCCCCCCCN(C)C(=O)OCC(C)(COCCCCCCCN1CCSC1)OC` (centres unmarked), the inhibition at 50 µM is 10%.

As for `CCCCCCCCCCCCCCCCOCC(C)(COC(=O)OCC[n+]1ccccc1)OC` (centres unmarked), the inhibition at 50 µM is 68%.

Regarding `CCCCCCCCCCCCCCCCCCN(C)C(=O)OCC(C)(COP(=O)([O-])OCC[n+]1ccccc1)OC` (centres unmarked), the inhibition at 50 µM was determined as 43%. For the molecule `CCCCCCCCCCCCCCCCCCN(C)C(=O)OCC(C)(CNS(=O)(=O)CCn1ccnc1)OC` (centres unmarked), the inhibition at 50 µM is 12%. `CCCCCCCCCCCCCCCCOCC(C)(COC(=O)NCC[n+]1ccsc1)OC` (centres unmarked): the inhibition at 50 µM is 44%. `CCCCCCCCCCCCCCCCCCN(C)C(=O)OCC(C)(COP(=O)([O-])OCC[n+]1ccsc1)OC` (centres unmarked): the inhibition at 5 µM (Dose 5 μM) is 50%. Consider `CCCCCCCCCCCCCCCCCCN(C)C(=O)OCC(C)(COCCCCCCCn1ccnc1N)OC` (centres unmarked), for which the inhibition at 50 µM stood at 17%. Still for that read-out and setting: the same measure for `CCCCCCCCCCCCCCCCCCN(C)C(=O)OCC(C)(COCCCCCCC[n+]1ccsc1)S(C)(=O)=O` (centres unmarked): 100%. With `CCCCCCCCCCCCCCCCCCN(C)C(=O)OCC(C)(COC(=O)NCCCCC[n+]1ccsc1)OC` (centres unmarked), the inhibition at 50 µM came to 100%. Same read-out and setting: the same measure for `CCCCCCCCCCCCCCCCCCN(C)C(=O)OCC(C)(COCCCCCCCn1cnc(CC(=O)OCc2ccccc2)c1)OC` (centres unmarked): 19%; for `CCCCCCCCCCCCCCCCOCC(C)(COC(=O)OCC[N+]1(C)CCCC1)OC` (centres unmarked): 32%. Take `CCCCCCCCCCCCCCCCOCC(C)(COC(=O)OCC[N+](C)(C)C)OC` (centres unmarked): the inhibition at 100 µM (Dose 100 μM) was determined as 100%.

Turning to `CCCCCCCCCCCCCCCCCCN(C)C(=O)OCC(C)(COCCCCCCCOC(=O)C(N)CSC)OC` (centres unmarked), the inhibition at 50 µM turned out to be 28%. In the case of `CCCCCCCCCCCCCCCCCCN(C)C(=O)OCC(CC)(COP(=O)(O)OCCn1ccnc1)OC` (centres unmarked), the inhibition at 50 µM was 23%.

On to `CCCCCCCCCCCCCCCCCCN(C)C(=O)OCC(COP(=O)([O-])OCC[n+]1ccsc1)(OC)C(C)C` (centres unmarked), for which the inhibition at 50 µM was determined as 100%. Turning to `CCCCCCCCCCCCCCCCCCN(C)C(=O)OCC(C)(COCCCCCCC[n+]1ccsc1)OC` (centres unmarked), the inhibition at 50 µM worked out at 100%.

Take `COC(C)(COCCCCCCCN1CCSC1=N)COC(=O)Nc1ccc(F)cc1F` (centres unmarked): the inhibition at 50 µM is 91%. `CCCCCCCCCCCCCCCCCCN(C)C(=O)OCC(C)(COCc1ccc(C[n+]2ccsc2)cc1)OC` (centres unmarked): the inhibition at 50 µM came to 100%. Regarding `COC(C)(COCCCCCCC[n+]1ccsc1)COC(=O)Nc1ccccc1` (centres unmarked), the inhibition at 50 µM was determined as 100%. As for `CCCCCCCCCCCCCCCCCCN(C)C(=O)OCC(C)(COCCCCCCC[n+]1ccsc1)SC` (centres unmarked), the inhibition at 50 µM was determined as 100%. Consider `CCCCCCCCCCCCCCCCCCN(C)C(=O)OCC(C)(COCCCCCCCn1cc[n+](C)c1)OC` (centres unmarked), for which the inhibition at 10 µM was 93%. Consider `CCCCCCCCCCCCCCCCCCN(C)C(=O)OCC(C)(COC(=O)NCC[n+]1ccsc1)OC` (centres unmarked), for which the inhibition at 50 µM worked out at 97%.

In the case of `CCCCCCCCCCCCCCCCCCN(C)C(=O)OCC(C)(COC(=O)NCC[N+](C)(C)C)OC` (centres unmarked), the inhibition at 50 µM was 67%.

`CCCCCCCCCCCCCCCCCCN(C)C(=O)OCC(C)(CNC(=O)OCC[N+](C)(C)C)OC` (centres unmarked): the inhibition at 50 µM is 83%. For `CCCCCCCCCCCCCCCCCCN(C)C(=O)OCC(C)(COCCCC[n+]1ccsc1)OC` (centres unmarked), the inhibition at 10 µM is 100%.

The record behind these values is patent publication US5449680A, “2,2 disubstituted glycerol and glycerol-like compounds, compositions and methods of use” (Schering Corporation, priority 1992, dated 1995).
